Source: ChEMBL document CHEMBL5303573, “Mapping human microbiome drug metabolism by gut bacteria and their genes” (Nature, 2019)

How the values were obtained:
[1] = The drug is tested on Ruminococcus torques strain: ATCC27756 for biotransformation. The drug concentrations were measured before and after a 12-h incubation by liquid-chromatography-coupled mass spectrometry (LC–MS); assay type: ADME; parameters: dose 2 uM, timepoint 0 vs 12 hours; settings: 2 µM
[2] = The drug is tested on Bacteroides finegoldii strain: DSM17565 for biotransformation. The drug concentrations were measured before and after a 12-h incubation by liquid-chromatography-coupled mass spectrometry (LC–MS); settings: 2 µM
[3] = The drug is tested on Bacteroides ovatus strain: ATCC8483 for biotransformation. The drug concentrations were measured before and after a 12-h incubation by liquid-chromatography-coupled mass spectrometry (LC–MS); settings: 2 µM
[4] = The drug is tested on Coprococcus comes strain: ATCC27758 for biotransformation. The drug concentrations were measured before and after a 12-h incubation by liquid-chromatography-coupled mass spectrometry (LC–MS); assay type: ADME; parameters: dose 2 uM, timepoint 0 vs 12 hours; settings: 2 µM
[5] = The drug is tested on Clostridium sporogenes strain: ATCC15579 for biotransformation. The drug concentrations were measured before and after a 12-h incubation by liquid-chromatography-coupled mass spectrometry (LC–MS); settings: 2 µM
[6] = The drug is tested on Enterobacter cancerogenus strain: ATCC35316 for biotransformation. The drug concentrations were measured before and after a 12-h incubation by liquid-chromatography-coupled mass spectrometry (LC–MS); settings: 2 µM
[7] = The drug is tested on Anaerotruncus colihominis strain: DSM17241 for biotransformation. The drug concentrations were measured before and after a 12-h incubation by liquid-chromatography-coupled mass spectrometry (LC–MS); settings: 2 µM
[8] = The drug is tested on Bacteroides coprophilus strain: DSM18228 for biotransformation. The drug concentrations were measured before and after a 12-h incubation by liquid-chromatography-coupled mass spectrometry (LC–MS); settings: 2 µM
[9] = The drug is tested on Bacteroides uniformis strain: ATCC8492 for biotransformation. The drug concentrations were measured before and after a 12-h incubation by liquid-chromatography-coupled mass spectrometry (LC–MS); settings: 2 µM
[10] = The drug is tested on Parabacteroides merdae strain: ATCC43184 for biotransformation. The drug concentrations were measured before and after a 12-h incubation by liquid-chromatography-coupled mass spectrometry (LC–MS); settings: 2 µM
[11] = The drug is tested on Bacteroides caccae strain: ATCC43185 for biotransformation. The drug concentrations were measured before and after a 12-h incubation by liquid-chromatography-coupled mass spectrometry (LC–MS); settings: 2 µM
[12] = The drug is tested on Collinsella aerofaciens strain: ATCC25986 for biotransformation. The drug concentrations were measured before and after a 12-h incubation by liquid-chromatography-coupled mass spectrometry (LC–MS); settings: 2 µM
[13] = limosilactobacillus reuteri cf48-3a, 12 h, 2 µM
Description: The drug is tested on Lactobacillus reuteri CF48-3A strain: BEI HM-102 for biotransformation. The drug concentrations were measured before and after a 12-h incubation by liquid-chromatography-coupled mass spectrometry (LC–MS)

[14] = The drug is tested on Clostridium asparagiforme strain: DSM15981 for biotransformation. The drug concentrations were measured before and after a 12-h incubation by liquid-chromatography-coupled mass spectrometry (LC–MS); assay type: ADME; parameters: dose 2 uM, timepoint 0 vs 12 hours; settings: enterocloster asparagiformis, 2 µM
[15] = The drug is tested on Dorea formicigenerans strain: ATCC27755 for biotransformation. The drug concentrations were measured before and after a 12-h incubation by liquid-chromatography-coupled mass spectrometry (LC–MS); settings: 2 µM
[16] = The drug is tested on Enterococcus faecalis strain: V583 for biotransformation. The drug concentrations were measured before and after a 12-h incubation by liquid-chromatography-coupled mass spectrometry (LC–MS); settings: 2 µM
[17] = bacteroides thetaiotaomicron, 12 h, 2 µM
Description: The drug is tested on Bacteroides thetaiotaomicron strain: 7330 for biotransformation. The drug concentrations were measured before and after a 12-h incubation by liquid-chromatography-coupled mass spectrometry (LC–MS)

[18] = The drug is tested on Odoribacter splanchnicus strain: fecal isolate for biotransformation. The drug concentrations were measured before and after a 12-h incubation by liquid-chromatography-coupled mass spectrometry (LC–MS); settings: 2 µM
[19] = The drug is tested on Bifidobacterium ruminantium strain: fecal isolate for biotransformation. The drug concentrations were measured before and after a 12-h incubation by liquid-chromatography-coupled mass spectrometry (LC–MS); settings: 2 µM

Row | Structure (SMILES) | Bacterial Biotransformation [1] | Bacterial Biotransformation [2] | Bacterial Biotransformation [3] | Bacterial Biotransformation [4] | Bacterial Biotransformation [5] | Bacterial Biotransformation [6] | Bacterial Biotransformation [7] | Bacterial Biotransformation [8] | Bacterial Biotransformation [9] | Bacterial Biotransformation [10] | Bacterial Biotransformation [11] | Bacterial Biotransformation [12] | Bacterial Biotransformation [13] | Bacterial Biotransformation [14] | Bacterial Biotransformation [15] | Bacterial Biotransformation [16] | Bacterial Biotransformation [17] | Bacterial Biotransformation [18] | Bacterial Biotransformation [19]
1 | CC(O)(CS(=O)(=O)c1ccc(F)cc1)C(=O)Nc1ccc(C#N)c(C(F)(F)F)c1 (stereo not given) [BICALUTAMIDE] | Compound NOT metabolized | Compound NOT metabolized | Compound NOT metabolized | Compound NOT metabolized | Compound NOT metabolized | Compound metabolized | Compound NOT metabolized | Compound NOT metabolized | Compound NOT metabolized | Compound NOT metabolized | Compound NOT metabolized | Compound NOT metabolized | Compound NOT metabolized | Compound NOT metabolized | Compound NOT metabolized | Compound NOT metabolized | Compound NOT metabolized | Compound metabolized | 
2 | C[C@@H](CO)NC(=O)[C@@H]1C=C2c3cccc4[nH]cc(c34)C[C@H]2N(C)C1.O=C(O)/C=C\C(=O)O [ERGONOVINE MALEATE] | Compound NOT metabolized | Compound NOT metabolized | Compound metabolized | Compound metabolized |  | Compound metabolized | Compound metabolized | Compound metabolized | Compound metabolized |  |  | Compound metabolized | Compound metabolized | Compound metabolized | Compound metabolized | Compound NOT metabolized | Compound metabolized | Compound metabolized | Compound NOT metabolized
3 | C#C[C@]1(OC(C)=O)CC[C@H]2[C@@H]3CCC4=C[C@@H](OC(C)=O)CC[C@@H]4[C@H]3CC[C@@]21C [ETHYNODIOL DIACETATE] | Compound NOT metabolized | Compound NOT metabolized | Compound NOT metabolized | Compound NOT metabolized | Compound NOT metabolized | Compound NOT metabolized | Compound NOT metabolized | Compound NOT metabolized |  | Compound NOT metabolized | Compound NOT metabolized | Compound NOT metabolized | Compound NOT metabolized | Compound NOT metabolized | Compound NOT metabolized | Compound NOT metabolized | Compound NOT metabolized | Compound NOT metabolized | Compound NOT metabolized
4 | CCc1cccc2c3c([nH]c12)C(CC)(CC(=O)O)OCC3 (stereo not given) [ETODOLAC] | Compound NOT metabolized | Compound NOT metabolized | Compound NOT metabolized | Compound NOT metabolized | Compound NOT metabolized | Compound NOT metabolized | Compound NOT metabolized | Compound NOT metabolized | Compound metabolized | Compound NOT metabolized | Compound NOT metabolized | Compound NOT metabolized | Compound NOT metabolized | Compound NOT metabolized | Compound NOT metabolized | Compound NOT metabolized | Compound metabolized | Compound metabolized | Compound NOT metabolized
5 | CC(C)OC(=O)C(C)(C)Oc1ccc(C(=O)c2ccc(Cl)cc2)cc1 [FENOFIBRATE] |  | Compound NOT metabolized |  |  |  | Compound NOT metabolized | Compound metabolized |  | Compound metabolized |  | Compound NOT metabolized | Compound NOT metabolized | Compound NOT metabolized | Compound metabolized |  |  | Compound NOT metabolized |  | Compound metabolized
6 | N=C(N)NC(=O)Cc1c(Cl)cccc1Cl [GUANFACINE] | Compound NOT metabolized | Compound NOT metabolized | Compound NOT metabolized | Compound NOT metabolized | Compound NOT metabolized | Compound NOT metabolized | Compound NOT metabolized |  | Compound NOT metabolized | Compound NOT metabolized | Compound NOT metabolized | Compound NOT metabolized |  | Compound NOT metabolized | Compound NOT metabolized | Compound NOT metabolized |  | Compound NOT metabolized | Compound NOT metabolized
7 | CCN(C)C(=O)Oc1cccc([C@H](C)N(C)C)c1.O=C(O)C(O)C(O)C(=O)O [RIVASTIGMINE TARTRATE] | Compound NOT metabolized | Compound NOT metabolized |  | Compound NOT metabolized | Compound NOT metabolized | Compound NOT metabolized | Compound NOT metabolized |  | Compound NOT metabolized | Compound NOT metabolized | Compound NOT metabolized | Compound NOT metabolized | Compound NOT metabolized | Compound NOT metabolized | Compound NOT metabolized | Compound NOT metabolized |  | Compound NOT metabolized | Compound NOT metabolized
8 | O=C(O)CCC(=O)O.O=C(O[C@H]1CN2CCC1CC2)N1CCc2ccccc2[C@@H]1c1ccccc1 [SOLIFENACIN SUCCINATE] | Compound NOT metabolized | Compound NOT metabolized | Compound NOT metabolized | Compound NOT metabolized | Compound NOT metabolized | Compound NOT metabolized | Compound NOT metabolized | Compound NOT metabolized | Compound NOT metabolized | Compound NOT metabolized | Compound NOT metabolized | Compound NOT metabolized | Compound NOT metabolized | Compound NOT metabolized | Compound NOT metabolized | Compound NOT metabolized | Compound NOT metabolized | Compound NOT metabolized | Compound NOT metabolized
9 | COc1cc2nc(N3CCN(C(=O)C4CCCO4)CC3)nc(N)c2cc1OC (stereo not given) [TERAZOSIN] | Compound NOT metabolized | Compound NOT metabolized | Compound NOT metabolized | Compound NOT metabolized | Compound NOT metabolized | Compound NOT metabolized | Compound NOT metabolized | Compound NOT metabolized | Compound NOT metabolized | Compound NOT metabolized | Compound NOT metabolized | Compound NOT metabolized | Compound NOT metabolized | Compound NOT metabolized | Compound NOT metabolized | Compound NOT metabolized | Compound NOT metabolized | Compound NOT metabolized | 
